Results on 14 molecules are retold here after PubChem BioAssay AID292 (DTP/NCI, 2004).

The assay concerns B6C3F1 mice, ip Sarcoma M5076, median survival T/C. The experiment in a line: NCI In Vivo Anticancer Drug Screen. Data for tumor model Sarcoma M5076 (intraperitoneal) in B6C3F1 mice. The following applies: endpoint: median survival time, schedule: Q04DX004 (ip), higher = longer survival. The essentials:
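Transplantable tumour in mice; compound-treated vs vehicle-treated groups. Read-out: survival. Value = treated/control ratio.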

Where [1] appears, read: dose: 50.0 mg/kg/injection, vehicle: Klucel (hydroxypropylcellulose) (HPC).
The mark [2] stands for this setting: dose: 31.25 mg/kg/injection, vehicle: saline + Tween-80 + alcohol.
Setting [3] is: dose: 62.5 mg/kg/injection, vehicle: saline + Tween-80 + alcohol.

Several values for one entry are separate records, joined by “and”; a condition that tells them apart may be missing. Equal values may be shown once. Inconclusive results and toxic doses are left out.

As to `O=c1[nH]c(=O)n(C2OC(CF)C(O)C2O)cc1N1CCOCC1` (stereo not drawn), the T/C by setting is: (dose: 17.5 mg/kg/injection, vehicle: saline) 100 % of control; (dose: 35.0 mg/kg/injection, vehicle: saline) 104 % of control; (dose: 70.0 mg/kg/injection, vehicle: saline) 97 % of control; (dose: 140.0 mg/kg/injection, vehicle: saline) 104 % of control; (dose: 280.0 mg/kg/injection, vehicle: saline) 102 % of control.
With `Cc1ccc(NN=O)nc1`, the T/C reads like this: (dose: 3.13 mg/kg/injection, vehicle: water) 113 % of control; (dose: 6.25 mg/kg/injection, vehicle: water) 113 % of control; (dose: 25.0 mg/kg/injection, vehicle: water) 160 % of control; (dose: 50.0 mg/kg/injection, vehicle: water) 160 % of control.
Regarding `O=S(CCCl)CCCl`, the T/C by setting is: (dose: 6.25 mg/kg/injection, vehicle: Klucel (hydroxypropylcellulose) (HPC)) 102 % of control; (dose: 12.5 mg/kg/injection, vehicle: Klucel (hydroxypropylcellulose) (HPC)) 98 % of control; (dose: 25.0 mg/kg/injection, vehicle: Klucel (hydroxypropylcellulose) (HPC)) 98 % of control; under setting [1], 106 % of control.
With `C=C1C(O)C2(O)OCC34C(CC5C(C)=CC(=O)C(O)C5(C)C23)OC(=O)C(OC(=O)C/C=C(\C)CCCCC)C14` (stereo not drawn), the T/C is, setting by setting: (dose: 1.0 mg/kg/injection, vehicle: saline + alcohol) 105 % of control and 107 % of control; (dose: 2.0 mg/kg/injection, vehicle: saline + alcohol) 104 % of control and 122 % of control; (dose: 4.0 mg/kg/injection, vehicle: saline + alcohol) 102 % of control and 108 % of control.
For the molecule `C[n+]1c(-c2ccc(/C=N/NC(=O)c3ccc(C(=O)N/N=C/c4ccc(-c5cn6ccccc6[n+]5C)cc4)cc3)cc2)cn2ccccc21`, the T/C (dose: 50.0 mg/kg/injection, vehicle: saline with Tween-80) was 104 % of control; the T/C (dose: 100.0 mg/kg/injection, vehicle: saline with Tween-80) was 98 % of control; the T/C (dose: 200.0 mg/kg/injection, vehicle: saline with Tween-80) is 108 % of control; the T/C (dose: 400.0 mg/kg/injection, vehicle: saline with Tween-80) was 115 % of control; the T/C (dose: 800.0 mg/kg/injection, vehicle: saline with Tween-80) is 112 % of control.
For the molecule `CN(C)C(=O)Nc1ccc(Cl)cc1`, the T/C runs as follows: (dose: 25.0 mg/kg/injection, vehicle: suspension in saline) 107 % of control; (dose: 50.0 mg/kg/injection, vehicle: suspension in saline) 94 % of control and 105 % of control and 113 % of control; (dose: 100.0 mg/kg/injection, vehicle: suspension in saline) 91 % of control and 102 % of control and 104 % of control; (dose: 200.0 mg/kg/injection, vehicle: suspension in saline) 92 % of control and 97 % of control and 113 % of control; (dose: 400.0 mg/kg/injection, vehicle: suspension in saline) 95 % of control and 98 % of control and 99 % of control.
For the molecule `CCOC(=O)c1cn(C)c2c1C(=O)C(C(=O)OCC)CC(=O)N2` (stereo not drawn), the T/C by setting is: under setting [2], 100 % of control; under setting [3], 101 % of control; (dose: 125.0 mg/kg/injection, vehicle: saline + Tween-80 + alcohol) 94 % of control; (dose: 250.0 mg/kg/injection, vehicle: saline + Tween-80 + alcohol) 92 % of control.
On to `C/C=C/C=C\C=C/C(O)CC(OP(=O)(O)O)C(C)(O)/C=C/C1CC=CC(=O)O1` (stereo not drawn), for which the T/C was 104 % of control (dose: 0.75 mg/kg/injection, vehicle: Klucel (hydroxypropylcellulose) (HPC)); 112 % of control (dose: 1.5 mg/kg/injection, vehicle: Klucel (hydroxypropylcellulose) (HPC)); 106 % of control (dose: 1.5 mg/kg/injection, vehicle: water); 111 % of control (dose: 3.0 mg/kg/injection, vehicle: Klucel (hydroxypropylcellulose) (HPC)); 108 % of control and 111 % of control (dose: 3.0 mg/kg/injection, vehicle: water); 112 % of control (dose: 6.0 mg/kg/injection, vehicle: Klucel (hydroxypropylcellulose) (HPC)). In addition, the T/C was 108 % of control and 113 % of control (dose: 6.0 mg/kg/injection, vehicle: water); 108 % of control (dose: 12.0 mg/kg/injection, vehicle: water); 112 % of control (dose: 24.0 mg/kg/injection, vehicle: water).
Consider `C=CCc1cn(C2CC(O)C(CO)O2)c(=O)[nH]c1=O` (stereo not drawn), for which the T/C was 99 % of control (dose: 50.0 mg/kg/injection, vehicle: saline); 93 % of control (dose: 100.0 mg/kg/injection, vehicle: saline); 93 % of control (dose: 200.0 mg/kg/injection, vehicle: saline); 101 % of control (dose: 400.0 mg/kg/injection, vehicle: saline).
Take `COc1cc([C@@H]2c3cc4c(c(O)c3C[C@H]3COC(=O)[C@@H]32)OCO4)cc(OC)c1OC`: the T/C (dose: 4.8 mg/kg/injection, vehicle: suspension in saline) is 159 % of control; the T/C (dose: 8.0 mg/kg/injection, vehicle: suspension in saline) is 163 % of control; the T/C (dose: 13.3 mg/kg/injection, vehicle: suspension in saline) is 155 % of control.
Take `C[C@H](N)C(=O)N[C@@H]1[C@H]2C(=C(O)C[C@@H](O)[C@@H]2O)C(=O)O[C@]1(C)C(Cl)Cl`: the T/C was 159 % of control (dose: 2.16 mg/kg/injection, vehicle: saline); 179 % of control (dose: 3.6 mg/kg/injection, vehicle: saline); 152 % of control and 164 % of control (dose: 6.0 mg/kg/injection, vehicle: saline); 235 % of control (dose: 10.0 mg/kg/injection, vehicle: saline).
For `CNC(=S)SC1=NS(=O)(=O)c2ccccc2N1`, the T/C was 105 % of control under setting [1]; 102 % of control (dose: 62.0 mg/kg/injection, vehicle: Klucel (hydroxypropylcellulose) (HPC)); 103 % of control (dose: 100.0 mg/kg/injection, vehicle: Klucel (hydroxypropylcellulose) (HPC)); 103 % of control (dose: 104.0 mg/kg/injection, vehicle: Klucel (hydroxypropylcellulose) (HPC)); 113 % of control (dose: 173.0 mg/kg/injection, vehicle: Klucel (hydroxypropylcellulose) (HPC)); 96 % of control (dose: 200.0 mg/kg/injection, vehicle: Klucel (hydroxypropylcellulose) (HPC)). Moreover, for the setting “dose: 400.0 mg/kg/injection, vehicle: Klucel (hydroxypropylcellulose) (HPC)”, the T/C was 109 % of control.
Regarding `COC(=O)[C@@]12OC[C@]34[C@H]([C@@H](O)[C@@H]1O)[C@@]1(C)CC(=O)C(OC(=O)CC(=O)OC5=C(C)[C@@H]6C[C@H]7OC(=O)[C@H](OC(=O)/C=C(\C)C(C)C)[C@H]8[C@]9(C(=O)OC)OC[C@]78[C@H]([C@@H](O)[C@@H]9O)[C@@]6(C)CC5=O)=C(C)[C@@H]1C[C@H]3OC(=O)[C@H](OC(=O)/C=C(\C)C(C)C)[C@@H]24`, the T/C is, setting by setting: (dose: 0.75 mg/kg/injection, vehicle: saline + Tween-80 + alcohol) 108 % of control; (dose: 1.5 mg/kg/injection, vehicle: saline + Tween-80 + alcohol) 118 % of control; (dose: 3.0 mg/kg/injection, vehicle: saline + Tween-80 + alcohol) 118 % of control; (dose: 6.0 mg/kg/injection, vehicle: saline + Tween-80 + alcohol) 112 % of control.
On to `COc1ccc(N2CCCSC2=S)cc1`, for which the T/C was 97 % of control under setting [2] and 91 % of control under setting [3].
